# Key:
# [1] = test system: Bifidobacterium dentium; experiment: Antibacterial activity against Bifidobacterium dentium by CLSI M11-A6 agar dilution method in presence of beta-lactamase inhibitor Sulbactam; assay type: functional
# [2] = test system: Bilophila wadsworthia; experiment: Antibacterial activity against Bilophila wadsworthia by CLSI M11-A6 agar dilution method in presence of beta-lactamase inhibitor Sulbactam; assay type: functional
# [3] = test system: Streptococcus intermedius; experiment: Antibacterial activity against Streptococcus intermedius by CLSI M11-A6 agar dilution method in presence of beta-lactamase inhibitor Sulbactam; assay type: functional
# [4] = test system: Parvimonas micra; experiment: Antibacterial activity against Peptostreptococcus micros by CLSI M11-A6 agar dilution method in presence of beta-lactamase inhibitor Sulbactam; assay type: functional
# [5] = test system: Prevotella disiens; experiment: Antibacterial activity against Prevotella disiens by CLSI M11-A6 agar dilution method in presence of beta-lactamase inhibitor Sulbactam; assay type: functional
# [6] = test system: Anaerococcus prevotii; experiment: Antibacterial activity against Anaerococcus prevotii by CLSI M11-A6 agar dilution method in presence of beta-lactamase inhibitor Sulbactam; assay type: functional
# [7] = test system: Clostridium subterminale; experiment: Antibacterial activity against Clostridium subterminale by CLSI M11-A6 agar dilution method in presence of beta-lactamase inhibitor Sulbactam; assay type: functional
# [8] = test system: Ruminococcus gnavus; experiment: Antibacterial activity against Ruminococcus gnavus by CLSI M11-A6 agar dilution method in presence of beta-lactamase inhibitor Sulbactam; assay type: functional; settings: Mediterraneibacter gnavus
# [9] = test system: Prevotella oris; experiment: Antibacterial activity against Prevotella oris by CLSI M11-A6 agar dilution method in presence of beta-lactamase inhibitor Sulbactam; assay type: functional; settings: Segatella oris
# [10] = test system: Eggerthella lenta; experiment: Antibacterial activity against Eggerthella lenta by CLSI M11-A6 agar dilution method in presence of beta-lactamase inhibitor Sulbactam; assay type: functional
# [11] = test system: Ruminococcus flavefaciens; experiment: Antibacterial activity against Ruminococcus flavefaciens by CLSI M11-A6 agar dilution method in presence of beta-lactamase inhibitor Sulbactam; assay type: functional
# [12] = test system: Coprobacillus cateniformis; experiment: Antibacterial activity against Coprobacillus cateniformis by CLSI M11-A6 agar dilution method in presence of beta-lactamase inhibitor Sulbactam; assay type: functional
# [13] = test system: Peptoniphilus asaccharolyticus; experiment: Antibacterial activity against Peptoniphilus asaccharolyticus by CLSI M11-A6 agar dilution method in presence of beta-lactamase inhibitor Sulbactam; assay type: functional
# [14] = test system: Blautia luti; experiment: Antibacterial activity against Ruminococcus luti by CLSI M11-A6 agar dilution method in presence of beta-lactamase inhibitor Sulbactam; assay type: functional
# [15] = test system: Ruminococcus obeum; experiment: Antibacterial activity against Ruminococcus obeum by CLSI M11-A6 agar dilution method in presence of beta-lactamase inhibitor Sulbactam; assay type: functional; settings: Blautia obeum
# [16] = test system: Bacteroides thetaiotaomicron; experiment: Antibacterial activity against Bacteroides thetaiotaomicron by CLSI M11-A6 agar dilution method in presence of beta-lactamase inhibitor Sulbactam; assay type: functional
# [17] = test system: Holdemania filiformis; experiment: Antibacterial activity against Holdemania filiformis by CLSI M11-A6 agar dilution method in presence of beta-lactamase inhibitor Sulbactam; assay type: functional
# [18] = test system: Coriobacterium; experiment: Antibacterial activity against […] by CLSI M11-A6 agar dilution method in presence of beta-lactamase inhibitor Sulbactam; assay type: functional
# [19] = test system: Hoylesella loescheii; experiment: Antibacterial activity against Prevotella loescheii by CLSI M11-A6 agar dilution method in presence of beta-lactamase inhibitor Sulbactam; assay type: functional
# [20] = test system: Odoribacter splanchnicus; experiment: Antibacterial activity against Bacteroides splanchnicus by CLSI M11-A6 agar dilution method in presence of beta-lactamase inhibitor Sulbactam; assay type: functional
# [21] = test system: Peptostreptococcus anaerobius; experiment: Antibacterial activity against Peptostreptococcus anaerobius by CLSI M11-A6 agar dilution method in presence of beta-lactamase inhibitor Sulbactam; assay type: functional
# [22] = test system: Ruminococcus lactaris; experiment: Antibacterial activity against Ruminococcus lactaris by CLSI M11-A6 agar dilution method in presence of beta-lactamase inhibitor Sulbactam; assay type: functional
# [23] = test system: Clostridium disporicum; experiment: Antibacterial activity against Clostridium disporicum by CLSI M11-A6 agar dilution method in presence of beta-lactamase inhibitor Sulbactam; assay type: functional
# [24] = test system: Prevotella intermedia; experiment: Antibacterial activity against Prevotella intermedia by CLSI M11-A6 agar dilution method in presence of beta-lactamase inhibitor Sulbactam; assay type: functional
# [25] = test system: Clostridium perfringens; experiment: Antibacterial activity against Clostridium perfringens by CLSI M11-A6 agar dilution method in presence of beta-lactamase inhibitor Sulbactam; assay type: functional
# [26] = test system: Clostridium celerecrescens; experiment: Antibacterial activity against Clostridium celerecrescens by CLSI M11-A6 agar dilution method in presence of beta-lactamase inhibitor Sulbactam; assay type: functional; settings: Lacrimispora celerecrescens
# [27] = test system: Clostridium bolteae; experiment: Antibacterial activity against Clostridium bolteae by CLSI M11-A6 agar dilution method in presence of beta-lactamase inhibitor Sulbactam; assay type: functional; settings: Enterocloster bolteae
# [28] = test system: Anaerococcus tetradius; experiment: Antibacterial activity against Anaerococcus tetradius by CLSI M11-A6 agar dilution method in presence of beta-lactamase inhibitor Sulbactam; assay type: functional
# [29] = test system: Ruminococcus albus; experiment: Antibacterial activity against Ruminococcus albus by CLSI M11-A6 agar dilution method in presence of beta-lactamase inhibitor Sulbactam; assay type: functional; settings: Hominimerdicola alba
# [30] = test system: Collinsella aerofaciens; experiment: Antibacterial activity against Colinsella aerofaciens by CLSI M11-A6 agar dilution method in presence of beta-lactamase inhibitor Sulbactam; assay type: functional
# [31] = test system: [Clostridium] innocuum; experiment: Antibacterial activity against Clostridium innocuum by CLSI M11-A6 agar dilution method in presence of beta-lactamase inhibitor Sulbactam; assay type: functional
# [32] = test system: Parabacteroides distasonis; experiment: Antibacterial activity against Parabacteroides distasonis by CLSI M11-A6 agar dilution method in presence of beta-lactamase inhibitor Sulbactam; assay type: functional
# [33] = Antibacterial activity against Bifidobacterium infantis by CLSI M11-A6 agar dilution method in presence of beta-lactamase inhibitor Sulbactam; assay type: functional, Bifidobacterium longum subsp. infantis; settings: Bifidobacterium longum
# [34] = test system: Paeniclostridium sordellii; experiment: Antibacterial activity against Clostridium sordellii by CLSI M11-A6 agar dilution method in presence of beta-lactamase inhibitor Sulbactam; assay type: functional; settings: Paraclostridium sordellii
# [35] = test system: Fusobacterium mortiferum; experiment: Antibacterial activity against Fusobacterium mortiferum by CLSI M11-A6 agar dilution method in presence of beta-lactamase inhibitor Sulbactam; assay type: functional
compound,measurement,setting,value
CC1(C)S[C@@H]2[C@H](NC(=O)[C@H](N)c3ccccc3)C(=O)N2[C@H]1C(=O)O [AMPICILLIN],MIC50,[1],0.25 µg/mL
same,MIC90,[1],1 µg/mL
same,MIC50,[2],2 µg/mL
same,MIC90,[2],4 µg/mL
same,MIC50,[3],0.5 µg/mL
same,MIC90,[3],0.5 µg/mL
same,MIC50,[4],0.25 µg/mL
same,MIC90,[4],0.5 µg/mL
same,MIC50,[5],≤ 0.12 µg/mL
same,MIC90,[5],2 µg/mL
same,MIC50,[6],0.25 µg/mL
same,MIC90,[6],0.5 µg/mL
same,MIC50,[7],≤ 0.12 µg/mL
same,MIC90,[7],0.25 µg/mL
same,MIC50,[8],≤ 0.12 µg/mL
same,MIC90,[8],1 µg/mL
same,MIC50,[9],≤ 0.12 µg/mL
same,MIC90,[9],2 µg/mL
same,MIC50,[10],0.25 µg/mL
same,MIC90,[10],1 µg/mL
same,MIC50,[11],≤ 0.12 µg/mL
same,MIC90,[11],1 µg/mL
same,MIC50,[12],0.25 µg/mL
same,MIC90,[12],1 µg/mL
same,MIC50,[13],0.25 µg/mL
same,MIC90,[13],0.5 µg/mL
same,MIC50,[14],≤ 0.12 µg/mL
same,MIC90,[14],1 µg/mL
same,MIC50,[15],≤ 0.12 µg/mL
same,MIC90,[15],0.25 µg/mL
same,MIC50,[16],4 µg/mL
same,MIC90,[16],16 µg/mL
same,MIC50,[17],0.25 µg/mL
same,MIC90,[17],1 µg/mL
same,MIC50,[18],0.25 µg/mL
same,MIC90,[18],1 µg/mL
same,MIC50,[19],≤ 0.12 µg/mL
same,MIC90,[19],2 µg/mL
same,MIC,[20],1 µg/mL
same,MIC50,[20],1 µg/mL
same,MIC90,[20],4 µg/mL
same,MIC50,[21],0.25 µg/mL
same,MIC90,[21],0.5 µg/mL
same,MIC50,[22],≤ 0.12 µg/mL
same,MIC90,[22],1 µg/mL
same,MIC50,[23],0.25 µg/mL
same,MIC90,[23],1 µg/mL
same,MIC50,[24],≤ 0.12 µg/mL
same,MIC90,[24],2 µg/mL
same,MIC,[25],≤ 0.12 µg/mL
same,MIC50,[25],≤ 0.12 µg/mL
same,MIC90,[25],≤ 0.12 µg/mL
same,MIC50,[26],0.25 µg/mL
same,MIC90,[26],1 µg/mL
same,MIC50,[27],8 µg/mL
same,MIC90,[27],16 µg/mL
same,MIC50,[28],0.25 µg/mL
same,MIC90,[28],0.5 µg/mL
same,MIC50,[29],≤ 0.12 µg/mL
same,MIC90,[29],1 µg/mL
same,MIC50,[30],0.25 µg/mL
same,MIC90,[30],1 µg/mL
same,MIC50,[31],0.5 µg/mL
same,MIC90,[31],0.5 µg/mL
same,MIC50,[32],8 µg/mL
same,MIC90,[32],32 µg/mL
same,MIC50,[33],0.25 µg/mL
same,MIC90,[33],1 µg/mL
same,MIC50,[34],0.25 µg/mL
same,MIC90,[34],1 µg/mL
same,MIC50,[35],2 µg/mL
same,MIC90,[35],16 µg/mL
